Test [1] relates to bacteria that carry a DNA relaxation-stimulated lacZ gene on a plasmid (pRAS101, 19.4, pSB2.his). Description: plate lawn technique on X-Gal medium (blue ring). The test is classed as cell-based, E. coli. The following applies: spotted onto lawn of bacteria, overnight growth at 37° C.; clones pRAS101, 19.4 and pSB2.his similar. The text has this: The principle of the screen is based on the observation that if known gyrase inhibitors are spotted onto X-Gal medium containing bacteria that carry a DNA relaxation-stimulated lacZ gene on a plasmid, clear zones of inhibition surrounded by a blue ring are formed after overnight growth. The blue ring presumably forms at the drug concentration where optimum relaxation-stimulation of the reporter gene has occurred before the cells are killed.
The following three clones were used: a) clone pRAS101 containing the gyrA promoter linked to the β-galactosidase gene; b) clone 19.4 (found by method described in section 3.3); and c) clone pSB2.his containing the hisD promoter linked to the β-galactosidase gene.
Cultures were grown overnight and diluted 1:1000 in (melted) L-agar cooled to 45° C. containing 50 μg/mL Ap and 60 μg/mL X-Gal. The medium was poured into 15×150 mm petri dishes immediately. After it had solidified, known gyrase inhibitors were applied automatically onto the solid agar surface using a Tomtec Quadra 96 machine as follows: 20 μg nalidixic acid (Nx), 100 μg novobiocin (Novo), 2 μg ciprofloxacin (Cipro), 10 μg coumermycin (Cou), 2 μg cinoxacin (Cinox), 2 μg pefloxacin (Pef), 2 μg fleroxacin (Fle), 2 μg flumequine (Flu) and 2 μg norfloxacin (Nor). […]

For test [2], the system named is clone 19.4 (relaxation-stimulated promoter upstream of lacZ in pSB2). Description: microtiter plate β-galactosidase assay, clone 19.4. The test is classed as cell-based, E. coli. The following applies: nalidixic acid 200 μg/ml, 2 hours at 37° C., treated vs control culture. The text has this:
The T4 terminator (T4 t) and lacZ gene were inserted into a plasmid expression vector pTB244 to create the construct pSB2. In this construct, the transcription of the lacZ gene, without a promoter, is prevented by the upstream T4 terminator, such that insertion of a promoter is necessary for lacZ expression. A random E. coli DNA library was constructed by inserting Escherichia coli chromosomal Sau3A fragments into the BamHI site of the screening vector pSB2, upstream of the promoter-less lacZ gene.
The library was transformed into the lacZ^− E. coli host strain MSD1011 (MM294 Δlac=E. coli K12 hsdR Δlac). […] Blue transformants were screened for the presence of relaxation-stimulated promoters using the microtiter plate β-galactosidase assay.
The β-galactosidase assays were carried out in 96-well, flat bottom microtiter plates. Blue (lacZ^+) ampicillin-resistant colonies of all sizes and shades of blue were purified, inoculated into 200 μl media (L-broth containing 50 μg/ml ampicillin) and incubated overnight at 37° C. […] Before carrying out the β-galactosidase assay, absorbance WAS read automatically on the Molecular Devices Microplate Reader at 595 nm in order to measure the differences in the cell titers between control and treated cultures. […] The plates were read at 28° C. on a Molecular Devices Microplate Reader at 420 nm for 2 mins at 0.09 sec intervals.

The subject of test [3] is pRAS101, gyrA promoter linked to a lacZ gene. The test is described as follows: microtiter plate β-galactosidase assay, pRAS101 positive control. Format: cell-based, E. coli. Conditions: nalidixic acid 200 μg/ml, 2 hours at 37° C. Here is the method:
The β-galactosidase assays were carried out in 96-well, flat bottom microtiter plates. Blue (lacZ^+) ampicillin-resistant colonies of all sizes and shades of blue were purified, inoculated into 200 μl media (L-broth containing 50 μg/ml ampicillin) and incubated overnight at 37° C. Cultures were then diluted 1:20 into fresh broth and incubated for 1.5 hours at 37° C. with shaking at 230 rpm to mid log phase. At this point half of each culture was transferred to a duplicate microtitre plate to which nalidixic acid had been added to give a final concentration of 200 μg/ml. Both plates were incubated at 37° C. for 2 hours to allow expression of the reporter gene that was then assayed. Before carrying out the β-galactosidase assay, absorbance WAS read automatically on the Molecular Devices Microplate Reader at 595 nm in order to measure the differences in the cell titers between control and treated cultures. 25 μl of β-galactosidase assay emulsion (prepared as follows: 5 mL ONPG (O-nitrophenyl-β-D-galactopyranodside) at 4 mg/ml, 5 mL 1× Z-buffer, 0.3 mL 1% SDS, 0.2 mL chloroform, 0.2 mL ether), was added to each well. The plates were read at 28° C. on a Molecular Devices Microplate Reader at 420 nm for 2 mins at 0.09 sec intervals. […]

Another test relates to H. influenzae. Description: minimum inhibitory concentration (MIC). The test is classed as cell-based. Conditions: Haemophilus influenzae.

Values after ≈ are worked out from the molar mass of the structure shown. Like-named read-outs stand apart in the source and are kept apart here.

In the case of `O=C(N[C@H](CO)[C@H](O)c1ccc([N+](=O)[O-])cc1)C(Cl)Cl` [chloramphenicol], the “stimulation of the DNA relaxation-stimulated reporter gene (blue ring)” value in test [1] is “little to no stimulation”. As to `CCn1cc(C(=O)O)c(=O)c2ccc(C)nc21` [nalidixic acid], the “relaxation stimulated transcription ratio” value in test [2] is given as 6.1. The “stimulation ratio (average)” value in test [3] came to 3.1 fold.

As to `CC1(C)S[C@@H]2[C@H](NC(=O)[C@H](N)c3ccccc3)C(=O)N2[C@H]1C(=O)O` [ampicillin], the MIC with H. influenzae (measured MIC against H. influenzae, read-out: MIC) came to 0.125 µg/mL (≈ 0.358 µM). `CO[C@@H]1[C@@H](OC(N)=O)[C@@H](O)[C@H](Oc2ccc3c(O)c(NC(=O)c4ccc(O)c(CC=C(C)C)c4)c(=O)oc3c2C)OC1(C)C` [novobiocin] gave an MIC in the test on H. influenzae of 0.125 µg/mL (≈ 0.204 µM).
